Assay: gradient 5% acetonitrile 3 min, to 50% in 2 min, to 85% in 15 min, held 3 min, 100 µL/min
Conditions: column: Zorbax Extend-C18 2.1 x 50 mm; eluents: water / acetonitrile, 0.1% formic acid
Outline: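 Standards, all pure, were combined into mixtures of ~100 molecules and run at 100 μL/min on a Zorbax Extend-C18 column (2.1 × 50 mm, 1.8 μm) with water and acetonitrile, each containing 0.1% formic acid. A coupled quadrupole time-of-flight mass spectrometer operated in positive and negative ionization mode. Retention time values come from computationally picked adduct peaks, each inspected manually.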

SMILES | RP-LC retention time
CCc1c(C(=O)O)nnn1-c1cccc(OC)c1 | 704 s
CCn1ccc2sc(C)c(C(=O)NCc3cccc(Br)c3)c2c1=O | 918 s
CCOCCCNC(=O)c1ccc(OCc2nnc(C(=O)Nc3ccccc3F)s2)cc1 | 853 s
Cc1cc(C)n2c(Nc3ccccc3)c(-c3cccc(Cl)c3)nc2n1 | 1130 s
c1ccc(-c2nnc(-c3cccnc3NCc3ccc4c(c3)OCO4)o2)cc1 | 1160 s
Cc1nn(CC(=O)NC(C)C)c(=O)c2nc(-c3ccccc3)sc12 | 733 s
Cc1ccc(NC(=O)Nc2nc3ccccc3s2)cc1NC(=O)Nc1nc2ccccc2s1 | 1040 s
Cc1cc(C)c(C)c(S(=O)(=O)N2CCCC2c2nc(-c3ccc(F)cc3)no2)c1C (stereo not given) | 1310 s
CC(C)n1cc2cc(C(=O)N(C)CCc3ccncc3)sc2c1 | 709 s
O=C(CSc1nnc(-c2ccc3c(c2)OCCO3)o1)N1CCN(c2ccccc2)CC1 | 850 s
Cc1noc(C2CN(C(=O)Nc3cc(F)cc(F)c3)CC23CCOCC3)n1 (stereo not given) | 726 s
Fc1ccc(Cn2cccc2-c2nc(-c3cccnc3)no2)cc1 | 1100 s
CCC(=O)N1CCC2(CC1)c1nccn1-c1ccccc1CN2CC(C)C | 632 s
N#Cc1ccc(NC(=O)C(=O)c2ccc[nH]2)cc1 | 801 s
CCn1cc(S(=O)(=O)NCc2cccc(C)c2)c2cccnc21 | 845 s
Cc1ccc(S(=O)(=O)N2CCc3c(c(-c4nnc(-c5ccccc5F)o4)nn3C)C2)cc1C | 988 s
CCn1cnc2ccc(C(=O)NC(C)C)cc2c1=O | 628 s
Cc1cc(NC(=O)Nc2ccc3c(c2)CCN3S(C)(=O)=O)ccc1Br | 943 s
Cc1ccc(N2CCN(c3nccn4c(=O)n(CC(=O)Nc5ccc(C)c(Cl)c5)nc34)CC2)cc1 | 1060 s
CC(C)n1cc(S(=O)(=O)NCc2cccs2)c2cccnc21 | 833 s

SMILES | RP-LC retention time
COc1cc(OC)c(NC(=O)N2CC(Cc3nc(-c4cnccn4)no3)C2)cc1Cl | 733 s
COCCn1cc(CCNC(=O)Nc2cccc(F)c2)c2cccnc21 | 732 s
COc1cccc(NC(=O)C2CCCN(c3ncnc4oc(C)c(C)c34)C2)c1 (stereo not given) | 891 s
CCOC(=O)c1cnc2nc(C)ccc2c1Nc1ccc(C)c(F)c1 | 736 s
CCOc1cc(-c2noc(-c3nnn4c3COC(c3ccc(F)cc3)C4)n2)ccc1OC (stereo not given) | 1130 s
Cc1nc(CNC(=O)c2ccc(-c3noc(C4CC4)n3)cc2)no1 | 717 s
Cc1oc2ccn(Cc3ccc(F)cc3)c(=O)c2c1C(=O)NCc1ccc(F)cc1F | 1100 s
CCOc1ccc(-c2csc(NC(=O)CCn3c(=O)oc4ccccc43)n2)cc1 | 997 s
COc1ccc(OC)c(-c2cn3ccn(-c4ccc(Br)cc4)c(=O)c3n2)c1 | 912 s
CNC(=O)c1sc2nc(-c3cccc(OC)c3)c(NC(C)(C)C)n2c1C | 780 s
Cc1c(NS(=O)(=O)CCOc2ccccc2)c(=O)n(-c2ccccc2)n1C | 729 s
CCCC(NC(=O)c1cc(C)cc(C)c1)C(=O)Nc1nc2ccccc2[nH]1 (stereo not given) | 751 s
CCOC(=O)c1ccccc1NC(=O)CSc1ccc(-c2ccccn2)nn1 | 906 s
O=S(=O)(Cc1ccc(Cl)cc1)N1CCC(n2c(-c3ccco3)nc3cccnc32)C1 (stereo not given) | 927 s
CC(C)C(=O)Nc1ccc(-n2cnc(C(=O)NCc3cc(F)cc(F)c3)c2)nc1 | 785 s
COc1ccc(-c2cn3cccnc3n2)cc1NC(=O)c1c(-c2ccccc2Cl)noc1C | 770 s
O=C(NCC(c1cccs1)N1CCc2ccccc21)c1ccco1 (stereo not given) | 894 s
COc1ccc(C)cc1NC(=O)N1CC(c2nc(C(C)C)nn2C)C1 | 710 s
CC(C)(C)c1csc(NC(=O)c2ccc3c(c2)OCCO3)n1 | 976 s
Cc1ccc(Nc2c(C(=O)N3CCOCC3)cnc3nc(C)ccc23)cc1 | 598 s

SMILES | RP-LC retention time
CCN(C(=O)C1CCCN1S(=O)(=O)c1cc2c(cc1C)NC(=O)C(C)O2)c1ccccc1 (stereo not given) | 814 s
CCSc1ccccc1C(=O)Nc1cccc2ccc(OC)nc12 | 1200 s
CC(C)(Oc1ccc(Cl)cc1)C(=O)Nc1c(-c2ccc(F)cc2)nc2ccccn12 | 821 s
CCNC(=O)CCc1cc2ccccc2[nH]c1=O | 623 s
COc1ccc(OC)c(NC(=O)C2Oc3ccccc3NC2=O)c1 (stereo not given) | 773 s
O=C(Nc1ccc(F)cc1)Nc1c(-c2ccccc2)nc2ccccn12 | 651 s
CN(C)C[C@@H]1CN(c2ncccn2)C[C@H]1NC(=O)NCc1ccco1 | 550 s
O=S(=O)(c1ccccc1)c1cnc2c(N3CCNCC3)cccc2c1 | 691 s
CCc1noc(NC(C)=O)c1-c1ccc(OC)c(S(=O)(=O)NC(C)CC)c1 (stereo not given) | 746 s
O=C(c1cccnc1)N1CCc2cc(-c3ccno3)ccc21 | 683 s
CCc1noc(NC(C)=O)c1-c1ccc(C)c(S(=O)(=O)NCc2ccccc2)c1 | 836 s
COc1ccccc1-c1nc2cnccn2c1NCCC(=O)N(C)C | 596 s
O=C(Nc1cccc(-c2cn3cccnc3n2)c1)c1ccc(F)c(F)c1 | 706 s
NS(=O)(=O)c1ccc2nc(NC(=O)COc3ccc(Cl)cc3)sc2c1 | 766 s
O=C(COc1ccccc1)Nc1nnc(C2=COCCO2)o1 | 651 s
OCCOCCNCc1ccc(-c2ccc(F)cc2)o1 | 620 s
CC(C)(C)c1ccc(S(=O)(=O)N2CCc3nc[nH]c3C2)cc1 | 683 s
CN(c1nc2ccccc2s1)C1CCN(C[C@H](O)COc2ccc(F)c(F)c2)CC1 | 777 s
O=C(NC(C(=O)N1CCCc2ccccc21)c1ccccc1)C1CC(=O)N(c2ccccc2)C1 (stereo not given) | 951 s

Results, then the molecule that gave them:

RP-LC retention time | SMILES
656 s | Cc1ccc(CNC(=O)c2cc3sc(C)c(CN4CCOCC4)c3[nH]2)o1
602 s | Cn1c(CN2CCN(C(=O)NC(C)(C)C)CC2)nc2cc(C(=O)N3CCCC3)ccc21
586 s | O=C(NCCCN1CCCC1)c1ccc(-c2ccc(NCc3ccccc3)nn2)cc1
623 s | O=C(N[C@H]1C[C@@H]2C[C@H]1CN2C(=O)Nc1ccc2c(c1)OCO2)c1cccs1
1220 s | Cc1cccc(Sc2nccnc2N2CCC(C(=O)NCCC3=CCCCC3)CC2)c1
616 s | CCNC(=O)N1CCC(c2noc(-c3ccncc3)n2)C1 (stereo not given)
659 s | CCS(=O)(=O)NCC1CCN(C(=O)COc2ccccc2)CC1
819 s | Cn1ncc2c(N3CCSCC3)nc(C(=O)Nc3ccccc3)nc21
562 s | Cc1oncc1CN1CCN(C(=O)c2c(F)cccc2F)CC1
896 s | O=C(Nc1ccc2c(c1)OCCO2)N1CCCC1c1nc(CCOCC2CCCC2)no1 (stereo not given)
767 s | COc1ccc(CCC(=O)NC2CCN(c3nnc4ccc(C(F)(F)F)cn34)CC2)cc1
547 s | Cn1c(C(=O)NCCCN2CCN(C3CCCCC3)CC2)cc2sccc21
1060 s | COc1ccc(-c2csc(C)n2)cc1S(=O)(=O)N1CCN(c2ccccc2)CC1
793 s | O=C(C1CCCN(c2nc3ccccc3n3cccc23)C1)N1CCN(c2ccccc2)CC1 (stereo not given)
703 s | CC(C)c1ccc(Sc2ccc(N3CCC(C(=O)NCCCO)CC3)nn2)cc1
1160 s | Cc1ccc(Cn2c(N3CCCC(C(=O)Nc4ccc(Cl)cc4)C3)nc3ccsc3c2=O)cc1 (stereo not given)

RP-LC retention time | SMILES
1130 s | CCn1c(=O)n(CC(=O)N(C)C2CCCCC2)c(=O)c2cnc(-c3ccccc3)nc21
779 s | CCCNC(=O)Cn1cnc2sc(C(=O)N3CC(C)CC(C)C3)c(C)c2c1=O (stereo not given)
720 s | O=C(NCc1ccccc1)C1CCc2nc(N3CCCCC3)ncc2C1 (stereo not given)
663 s | CCn1nc(-c2ccc(OC)c(S(=O)(=O)N3CCC(C(N)=O)CC3)c2)c2c(c1=O)CCCC2
820 s | CC(C)NC(=O)c1ccc(OCC2CCN(C(=O)c3ccccc3Cl)CC2)cc1
645 s | CCN(CC)S(=O)(=O)c1ccc2c(c1)CC(C(=O)NCCN(C)C)N2C(C)=O (stereo not given)
570 s | O=C(O)CC1CCCN(c2cn[nH]c(=O)c2)C1 (stereo not given)
893 s | Cc1ccc(CNC(=O)C2CCCN(C(=O)c3[nH]c(C)c(C(=O)OC(C)C)c3C)C2)cc1 (stereo not given)
743 s | O=C(Nc1ccc(C(=O)N2CCOCC2)c(N2CCCCCC2)c1)C1CC1
780 s | O=C(C1=CN(c2ccc3c(c2)OCO3)c2ccccc2S1(=O)=O)N1CCCCC1
554 s | CCOC(=O)C1CCN(C(=O)c2ccc3c(c2)NC(=O)C2CCCCN32)CC1 (stereo not given)
641 s | O=C(NCc1ccccc1F)C1CCN(c2cncnc2N2CCCC2)CC1
663 s | CCOC(=O)C1=C(CN2CCN(C(C)CC)CC2)NC(=O)NC1c1ccc(Cl)cc1 (stereo not given)
871 s | CCC(=O)N1CCc2cc(S(=O)(=O)CCC(=O)N3CC(C)CC(C)C3)ccc21 (stereo not given)
647 s | Nc1cc(C2CCN(C(=O)c3nccc4ccccc34)CC2)no1

From the METLIN SMRT retention time set (Domingo-Almenara et al. 2019)
